Test results: patent US8536113B2, “EGFR binding peptides and uses thereof” (Janssen Biotech, Inc., priority 2006, dated 2013)

How the values were obtained:
MCF-7 = assay: Flow cytometry of phage binding to EGFR negative tumor cells; assay type: cell-based, human; settings: EGFR positive versus EGFR negative cells
Protocol: (§1) Flow cytometry. To evaluate whether the selected peptides from phage display can bind to tumor cells that overexpress EGFR, A431 cells (epidermoid cancer) or an EGFR negative tumor cells, MCF-7 (breast carcinoma) were tested in a flow cytometry assay using fluorescence detection (FACS). For P145, PP146 and their control phage, 2.5×10^5 A431 cells were resuspended in 25 μl of flow staining buffer (dPBS with 1% BSA, 0.09% sodium azide) and incubated with 25 μl of phage clones for 1 hour at 4° C. […] Cells were washed two times with flow staining buffer and then incubated with 0.5 μg of mouse anti M13/fd/F1 filamentous phages monoclonal antibody conjugated to FITC (Fitzgerald Industries International, Inc. Concord, Mass.) for 45 minutes at 4° C. Cells were washed two times with flow staining buffer and acquired by FACSCalibur (BD, Franklin Lakes, N.J.) to detect bound phages on tumor cell surface. Results.
(§2) A431 cells (epidermoid cancer) which overexpress EGFR and EGFR-negative tumor cells, MCF-7 (breast carcinoma) were tested in a flow cytometry assay. Tumor cells (A431 and MCF-7) were harvested with 0.25% tyrpsin-EDTA and washed twice with FACS staining buffer (dPBS with 1% BSA, 0.09% sodium azide). […] After binding at 4° C., cells were washed twice with FACS staining buffer to remove unbound phage and then incubated with 0.5 μg of mouse anti-M13 monoclonal antibody conjugated to FITC (Fitzgerald Industries International, Inc. Concord, Mass.) for 1 hour at 4° C. Mouse anti-M13-FITC incubated with cells without phage was used as background binding. Cells were washed twice with FACS staining buffer to remove unbound detection antibody.

[1] = molecular target: T1, complex between EGF and sEGFR-MMB (Homo sapiens, UniProt P00533); assay: Phage ELISA binding studies on P190, receptor with added EGF; settings: Table 10; listed as pIX-190
T1 construct: made in house
Protocol: The plates were held overnight at room temperature, washed twice with TBST (0.5M Tris Base, 9% NaCl, 0.05% tween, pH 7.6), and loaded with 200 μL per well of Starting Block (Pierce). […] The plates were held at room temperature for 1.5 hours for blocking. Plates were then washed twice with TBST and phage were added. The phage solutions were crude phage supernatant from overnight cultures diluted four-fold with Starting Block. After a one-hour incubation, the plates were washed thrice with TBST and 100 μL of a 1:5000 dilution of phage binding antibody conjugate (α-M13-HRP) was added to the wells. EGF was added if applicable. After a one-hour incubation the plates were washed five times with TBST, 100 μL of POD (BM Chemiluminescence ELISA substrate; Roche Applied Science) was added, and chemiluminescence recorded.

A431 cells [2] = assay: Flow cytometry of phage binding to tumor cells; assay type: cell-based, human
Protocol: as §1, §2

A431 cells [3] = assay: Internalization of biotinylated P190 by FACS and confocal microscopy; assay type: cell-based, human; settings: 37° C.
Protocol: The complexes were added to A431 cells that had been pre-incubated in PBS with or without EGF for 15 minutes and then incubated for an additional hour. Cells were washed to remove unbound complexes and split into two separate tubes, one of which stayed at 4° C. and one of which was incubated for 2 hours at 37° C. to promote internalization. Again, cells were washed and further split into 2 groups with one tube from each temperature undergoing acid wash treatment to remove surface-bound biotinylated peptide. Cells were washed again in FACS staining buffer and peptide binding and internalization were acquired by FACSCalibur (BD, Franklin Lakes, N.J.) and analyzed by Cell Quest software. The remaining cells from both 4° C. and 37° C. without acid wash after FACS analysis were centrifuged and resuspended with 50 μL mounting medium containing DAPI (Vector Laboratory Inc. Burlingame, Calif.). Ten μL of cells in mounting medium were transferred to a glass slide, covered with thin glass slips and examined by confocal microscopy.

DPCTWEVWGRECLQ [P190]
binding to A431 compared with MCF-7 (MCF-7): bound more effectively to A431 cells | binding to A431 compared with MCF-7 (MCF-7; listed as pIII-190): bind to A431 but not to MCF-7 | binding to A431 compared with MCF-7 (MCF-7; listed as pIX-190): bind to A431 but not to MCF-7 | Binds EGF + SEGFR-MMB Complex [1]: increased in the presence of EGF or TGF-a | phage binding to A431 cells in the presence of EGF (A431 cells [2]): increased | phage binding to A431 cells in the presence of EGF and cetuximab (A431 cells [2]): decreases | internalization into EGFR^+ cells (A431 cells [3]): is internalized
